Results published in ChEMBL document CHEMBL1126488, “A new designed tumor selective daunomycin derivative” (Bioorg Med Chem Lett, 1993).

Key:
[1] = tested on: MCF7; assay: Cytotoxicity of compound was tested against MCF-7 cell line (breast carcinoma) after incubation for 24 hour; type: functional, cell-based; conditions: Homo sapiens, MCF7, 24 h
[2] = tested on: CHO; assay: Cytotoxicity of compound was tested against CHO cell line (Chinese hamster ovary) after incubation for 72 hour; type: functional, cell-based; conditions: Cricetulus griseus
[3] = tested on: SK-MEL-28; assay: Cytotoxicity of compound was tested against SK-Mel-28 cell line (melanoma) after incubation for 24 hour; type: functional, cell-based; conditions: Homo sapiens, SK-MEL-28, 24 h
[4] = tested on: MOLT-4; assay: Cytotoxicity of compound was tested against Molt-4 cell line (T-cell leukemia) after incubation for 24 hour; type: functional, cell-based; conditions: Homo sapiens, MOLT-4, 24 h
[5] = tested on: NHDF; assay: Cytotoxicity of compound was tested against NHDF cell line (norm human dermal fibroblast) after incubation for 72 hour; type: functional, cell-based
[6] = tested on: P388; assay: Cytotoxicity of compound was tested against P-388 cell line (mouse leukemia) after incubation for 72 hour; type: functional, cell-based; conditions: P388, 72 h
[7] = Lethal dose of compound required when administered BALB C mice; type: toxicity; conditions: mouse, in vivo
[8] = tested on: HL-60; assay: Cytotoxicity of compound was tested against HL-60 cell line (promyelocytic leukemia) after incubation for 72 hour; type: functional, cell-based; conditions: Homo sapiens, HL-60, 72 h
[9] = tested on: UCLA P-3; assay: Cytotoxicity of compound was tested against UCLA P-3 cell line (lung carcinoma) after incubation for 24 hour; type: functional, cell-based; conditions: Homo sapiens, UCLA P-3, 24 h
[10] = tested on: OVCAR-3; assay: Cytotoxicity of compound was tested against Ovcar-3 cell line (ovarian carcinoma) after incubation for 72 hour; type: functional, cell-based; conditions: Homo sapiens, OVCAR-3, 72 h
[11] = tested on: HT-29; assay: Cytotoxicity of compound was tested against HT-29 cell line (colon carcinoma) after incubation for 24 hour; type: functional, cell-based; conditions: Homo sapiens, HT-29, 24 h
[12] = tested on: HL-60; assay: Cytotoxicity of compound was tested against HL-60 cell line (promyelocytic leukemia) after incubation for 24 hour; type: functional, cell-based; conditions: Homo sapiens, HL-60, 24 h
[13] = tested on: HMEC; assay: Cytotoxicity of compound was tested against HMEC cell line (human mamm epithelial cells) after incubation for 24 hour; type: functional, cell-based
[14] = tested on: P388; assay: Cytotoxicity of compound was tested against P-388 cell line (mouse leukemia) after incubation for 24 hour; type: functional, cell-based; conditions: P388, 24 h
[15] = tested on: CAPAN-1; assay: Cytotoxicity of compound was tested against Capan-1 cell line (pancreatic carcinoma) after incubation for 24 hour; type: functional, cell-based; conditions: Homo sapiens, CAPAN-1, 24 h
[16] = tested on: NHDF; assay: Cytotoxicity of compound was tested against NHDF cell line (norm human dermal fibroblast) after incubation for 24 hour; type: functional, cell-based
[17] = tested on: CHO; assay: Cytotoxicity of compound was tested against CHO cell line (Chinese hamster ovary) after incubation for 24 hour; type: functional, cell-based; conditions: Cricetulus griseus
[18] = tested on: OVCAR-3; assay: Cytotoxicity of compound was tested against Ovcar-3 cell line (ovarian carcinoma) after incubation for 24 hour; type: functional, cell-based; conditions: Homo sapiens, OVCAR-3, 24 h
[19] = tested on: HMEC; assay: Cytotoxicity of compound was tested against HMEC cell line (human mamm epithelial cells) after incubation for 72 hour; type: functional, cell-based
[20] = tested on: SK-MEL-28; assay: Cytotoxicity of compound was tested against SK-Mel-28 cell line (melanoma) after incubation for 72 hour; type: functional, cell-based; conditions: Homo sapiens, SK-MEL-28, 72 h
[21] = tested on: MCF7; assay: Cytotoxicity of compound was tested against MCF-7 cell line (breast carcinoma) after incubation for 72 hour; type: functional, cell-based; conditions: Homo sapiens, MCF7, 72 h
[22] = tested on: CAPAN-1; assay: Cytotoxicity of compound was tested against […] cell line (pancreatic carcinoma) after incubation for 72 hour; type: functional, cell-based; conditions: Homo sapiens, CAPAN-1, 72 h
[23] = tested on: HT-29; assay: Cytotoxicity of compound was tested against HT-29 cell line (colon carcinoma) after incubation for 72 hour; type: functional, cell-based; conditions: Homo sapiens, HT-29, 72 h

## COc1cccc2c1C(=O)c1c(O)c3c(c(O)c1C2=O)C[C@@](O)(C(C)=O)C[C@@H]3O[C@H]1C[C@H](N)[C@H](O)[C@H](C)O1.Cl [DAUNORUBICIN HYDROCHLORIDE]
[1]
  IC50: 780 nM
[2]
  IC50: 294 nM
[3]
  IC50: 1600 nM
[4]
  IC50: 1 nM
[5]
  IC50: 404 nM
[6]
  IC50: < 98 nM
[7]
  LD50: 15 mg/kg
[8]
  IC50: 98 nM
[9]
  IC50: 730 nM
[10]
  IC50: 287 nM
[11]
  IC50: 780 nM
[12]
  IC50: < 98 nM
[13]
  IC50: 390 nM
[14]
  IC50: 390 nM
[15]
  IC50: 390 nM
[16]
  IC50: 190 nM
[17]
  IC50: 390 nM
[18]
  IC50: 390 nM
[19]
  IC50: < 98 nM
[20]
  IC50: 1410 nM
[21]
  IC50: 13500 nM
[22]
  IC50: 3100 nM
[23]
  IC50: 357 nM
